From publication PMC11313193, “Which Constituents Determine the Antioxidant Activity and Cytotoxicity of Garlic? Role of Organosulfur Compounds and Phenolics” (International Journal of Molecular Sciences, 2024)

Tests used:
SKOV-3 xenograft tumors = tested on: SKOV-3 xenograft tumors; set-up: method as in PMID 16675472; conditions: administered intragastrically; cited from earlier work
SKOV-3 cells [1] = tested on: SKOV-3 cells; set-up: method as in PMID 16675472; conditions: cited from earlier work
HO8910 xenograft tumors = tested on: HO8910 xenograft tumors; set-up: method as in PMID 16675472; conditions: administered intragastrically; cited from earlier work
[2] = ABTS^● decolorization assay; conditions: 30 min incubation at room temperature, absorbance at 734 nm
Protocol: A modification of the ABTS^● decolorization assay was employed. Briefly, various volumes of solutions of the studied compounds were introduced to wells of a 96-well microplate, each prefilled 200 μL of ABTS^● solution. […] The drop in absorbance after 30 min incubation at room temperature was read as a measure of the antioxidant activity.
(§1) All assays were standardized with respect to Trolox. The antioxidant activity was calculated in each case as a ratio of the slope of the dependence of absorbance change on the concentration of a studied compound to the slope of the dependence of absorbance change of standard samples concerning Trolox on the concentration of Trolox. Antioxidant activities were expressed in moles of Trolox equivalents (TE)/mol of a studied compound, as described previously.

[3] = tested on: SGC7901 human gastric adenocarcinoma cells; set-up: method as in PMID 21042755; conditions: 120 μg/mL (i.e., ca. 0.74 mM), 24 h exposure; cited from earlier work
[4] = tested on: cervical squamous carcinoma SiHa cells; set-up: method as in PMID 30783417; conditions: 50 nM, 24 h exposure; cited from earlier work
[5] = tested on: MDA-MB-231 breast cancer cells; set-up: method as in PMID 34626309; conditions: 24 h exposure, cited from earlier work
[6] = tested on: breast cancer MCF-7 cells; set-up: method as in PMID 32286702; conditions: 24 h exposure; read-out: Concentration lowering viability of MCF-7 cells to 50%; cited from earlier work
[7] = set-up: method as in PMID 17312965; conditions: cited from earlier work
[8] = tested on: U87MG human glioblastoma cells; set-up: method as in PMID 22552443; conditions: 24 h exposure, cited from earlier work
[9] = tested on: gastric carcinoma AGS cells; set-up: method as in PMID 15911108; conditions: 24 h exposure, cited from earlier work
MRC-5 fibroblasts = test: Cytotoxicity (Neutral Red), MRC-5 fibroblasts; format: cell-based, human; conditions: 24 h exposure
Protocol: (§2) The PEO1 cells, SKOV-3 cells, and MRC-5 cells were grown at 37 °C and 5% CO2 in RPMI + GlutaMAX medium, McCoy’s 5A medium, and the DMEM + GlutaMAX medium, respectively. The media were supplemented with 10% heat-inactivated fetal calf serum and penicillin/streptomycin. The cell viability was evaluated using the Trypan Blue exclusion test.
(§3) In the cytotoxicity experiments, cells were grown in wells of sterile 96-well plates. The seeding density was 1 × 10^4 for SKOV-3 and MRC-5 cells and 1.5 × 10^4 for PEO1 cells. The cells were allowed to grow in the incubator for 24 h. Then, the medium was removed and new medium with an examined compound was added. The stock solutions of the compounds studied diluted with the appropriate cell medium were filtered before the addition to the cells using 0.22 µm filters. No more than 0.02% of DMSO was present in the media, and it had no discernible impact on the treated cells. Cells not exposed to any compound served as a control. After another 24 h incubation, the medium was gently aspirated, and the wells were added with 2% sterile Neutral Red solution (100 µL). The plates were then incubated (37 °C, 5% CO2) for one hour. The Neutral Red solution was aspirated, and the wells were washed two times with warm (37 °C) PBS. Subsequently, 100 µL of a permeabilization mixture (water/ethanol/glacial acetic acid, 50/49/1, v/v/v) was introduced to each well. The plates were shaken at 700 rpm for 20 min and absorbance was read at a wavelength of 540 nm against 620 nm.

[10] = DPPH^● decolorization assay; conditions: 30 min at ambient temperature in the dark, absorbance at 517 nm
Protocol: The assay was performed as described in a previous article. Briefly, increasing volumes of solutions of the studied compounds were introduced to wells of a 96-well microplate, each with 200 μL of 0.3 mM DPPH^● solution in methanol. The reaction was allowed to proceed for 30 min at ambient temperature in the dark, and absorbance at 517 nm was read. The absorbance decrease was a measure of the antioxidant activity.
as §1

SKOV-3 cells [11] = tested on: SKOV-3 cells; set-up: method as in PMID 25097657; conditions: 24 h exposure, cited from earlier work
[12] = tested on: PEO1 ovarian cancer cells; test: Cytotoxicity (Neutral Red), PEO1 cells; format: cell-based, human; conditions: 24 h exposure
Protocol: as §2, §3

[13] = tested on: microsomal lipid peroxidation; set-up: method as in PMID 16822206; conditions: cited from earlier work
U251 glioma cells = tested on: U251 glioma cells; set-up: method as in PMID 29436625; conditions: 24 h exposure, cited from earlier work
[14] = tested on: breast cancer HCC-70 cells; set-up: method as in PMID 32286702; conditions: 24 h exposure; read-out: Concentration lowering viability of HCC-70 cells to 50%; cited from earlier work
[15] = tested on: MCF-7 breast cancer cells; set-up: method as in PMID 34626309; conditions: 24 h exposure, cited from earlier work
[16] = Ferric reducing antioxidant power (FRAP) assay; conditions: 30 min at ambient temperature, pH 3.6, absorbance at 593 nm
Protocol: The method proposed by Benzie and Strain [91] was employed with a slight modification. Briefly, increasing volumes of solutions of the studied compounds were added to wells of a 96-well microplate prefilled with 200 μL of the working solution composed of 0.3 M acetate buffer, pH 3.6 (10 volumes), 10 mM 2,4,6-tris(2-pyridyl)-s-triazine (TPTZ), in 40 mM HCl (1 volume) and 20 mM FeCl3 (1 volume), was prepared immediately before use. After 30 min incubation at ambient temperature and the absorbance of the Fe^2+-TPTZ complex was read at 593 nm.
as §1

[17] = tested on: SKOV-3 ovarian cancer cells; test: Cytotoxicity (Neutral Red), SKOV-3 cells; format: cell-based, human; conditions: 24 h exposure
Protocol: as §2, §3

[18] = in the concentration range studied

## C=CCSSC[C@H](N)C(=O)O [SAMC, S-allylmercaptocysteine]
SKOV-3 xenograft tumors
  Development of xenograft tumors formed by SKOV-3 cells: inhibited
SKOV-3 cells [1]
  Migration of SKOV-3 cells and their invasiveness: inhibited
HO8910 xenograft tumors
  Development of xenograft tumors formed by HO8910 cells: inhibited

## C=CCS[S+]([O-])CC=C (stereo not drawn) [Allicin, S-(prop-2-en-1-yl)prop-2-ene-1-sulfinothioate]
[2]
  Antioxidant activity, ABTS^● Decolorization: −0.038 ± 0.020 mol Trolox equivalents (TE)/mol compound
[3]
  Decrease in the survival of SGC7901 cells: ca. 25%
[4]
  SiHa cell viability (decreased to): ca. 60%
[5]; converted from μg/mL, read-out: Concentration lowering survival of MDA-MB-231 cells by 50%
  IC50: ~111 µM
[5]
  Concentration lowering survival of MDA-MB-231 cells by 50%: about 18 μg/mL
[6]
  IC50: ~15 µM
[7]
  Reaction rate constant with cumene peroxyl radicals: 2600 M⁻¹ s⁻¹
[8]; converted, read-out: Concentration reducing viability of U87MG glioblastoma cells to 50%
  IC50: 550 µM
[8]
  Concentration reducing viability of U87MG glioblastoma cells to 50%: ca. 90 /mL μg
[9]; converted from μg/mL, read-out: Concentration diminishing survival of AGS cells to ca. 50%
  IC50: ~62 µM
[9]
  Concentration diminishing survival of AGS cells to ca. 50%: 10 µg/mL
MRC-5 fibroblasts; p < 0.05
  Concentration at which viability of MRC-5 cells was lowered: 100 µM
MRC-5 fibroblasts; Homo sapiens, MRC5, Neutral Red, read-out: IC50 MRC-5
  IC50: 120 µM
[10]
  Antioxidant activity, DPPH^● Decolorization: −0.023 ± 0.009 mol Trolox equivalents (TE)/mol compound
SKOV-3 cells [11]; converted from μg/mL, read-out: Concentration reducing viability of SKOV-3 cells to 50%
  IC50: 430 to 490 µM
SKOV-3 cells [11]
  Concentration reducing viability of SKOV-3 cells to 50%: 70 to 80 µg/mL
[12]; Homo sapiens, PEO1, Neutral Red, read-out: IC50 PEO1
  IC50: 282 µM
[12]; [18]
  Effect on viability of PEO1 cells: did not significantly lower the viability
[13]
  Termination of lipid peroxidation / prevention of induced microsomal lipid peroxidation: ineffective
U251 glioma cells; converted from μg/mL, read-out: Concentration reducing viability of U251 glioma cells to 50%
  IC50: 247 µM
U251 glioma cells
  Concentration reducing viability of U251 glioma cells to 50%: ca. 40 μg/mL
[14]
  IC50: ~10 µM
[15]; converted from μg/mL, read-out: Concentration lowering survival of MCF-7 cells by 50%
  IC50: ~43 µM
[15]
  Concentration lowering survival of MCF-7 cells by 50%: about 7 μg/mL
[16]
  Antioxidant activity, FRAP: −0.0014 ± 0.0016 mol Trolox equivalents (TE)/mol compound
[17]; Homo sapiens, SK-OV-3, Neutral Red, read-out: IC50 SKOV-3
  IC50: 236 µM
[17]; [18]
  Effect on viability of SKOV-3 cells: did not significantly lower the viability
